Where “and” joins values, the source holds several entries; their conditions need not be identical. Equal entries are not always repeated.
Key:
UIRI mice = assay: Blood calcium and phosphorus in UIRI mice; type: in vivo, mouse
Description: (§1) Male BALB/c mice weighing 20–22 g were purchased from Beijing Vital River Laboratory Animal Technology Co. and housed in a standard environment which was characterized by 12 h light/dark cycle, 22–25 °C, and 40–60% humidity with free access to water and chow (catalog number: SWS9102). Mice have randomly divided into 3 groups: (i) sham controls; (ii) UIRI or UUO mice treated with vehicle; (iii) UIRI or UUO mice treated with KP1. A renal UIRI model was performed. Briefly, under general anesthesia, mice were made a midline abdominal incision, and the left kidney was clipped for 35 min by a vascular clamp. Mice were kept on the heating block at 37 °C during ischemia. The contralateral right kidney was removed on day 10 after ischemia–reperfusion. Mice were sacrificed 11 days after IRI. Blood and kidneys were collected for analysis. UUO model was established. Briefly, the left ureter of the lower pole of the kidney was obstructed by 3–0 surgical suture. KP1 peptide was dissolved in 0.01 M acetic acid and administrated intravenously via tail vein at concentration of 1 mg/day/kg (0.31 μM/day/kg) body weight for 6 days. For some experiments, ITD-1 (S6713, Selleck) was dissolved in PBS with 0.025% DMSO and 0.1% Tween 80 buffer and injected via tail vein at 0.31 μM/day/kg body weight. All animal studies were approved by the Laboratory Animal Ethics Committee of Nanfang Hospital, Southern Medical University.

[1] = target: T1, TGF-β receptor 2 (TβR2), recombinant (Homo sapiens, UniProt P37173); assay: SPR affinity measurement (Biacore T200); type: binding; settings: 25 °C, 1:1 fit, KP1 0.78–25 μM, KP12 1.56–100 μM, representative of two independent experiments, read-out: ka
T1 construct: purchased Sino Biological Inc., Beijing, China 10358-H03H-B
Description: The SPR analyses were performed on a Biacore T200 apparatus (GE Healthcare, Uppsala Sweden) at 25 °C. Recombinant TGF-β receptor 2 protein (43.4 kDa, >95% as determined by SDS-PAGE) (10358-H03H-B; Sino Biological Inc., Beijing, China) diluted at 50 µg/ml in 10 mM acetate pH 4.0, was covalently immobilized on a CM5 sensor chip (GE Healthcare) using amine-coupling chemistry. Samples of KP1 (3.229 kDa, HPLC purity >95%) or KP12 (3.6 kDa, HPLC purity >95%) in PBS at various concentrations were injected at a flow rate of 60 μl/min. The injection time was set to 180 s, the dissociation time was set to 540 s, and 50 mM Gly-HCl (pH = 2.5) was used as the regeneration buffer. Data were fitted to a 1:1 binding model to obtain KD. All results presented were representative of double or triplicated injections in an interleaved manner. Two independent experiments were performed.

[2] = tested on: ERK1/2, JNK and p38 phosphorylation in NRK-49F cells; assay: TGF-β1-induced MAPK (ERK1/2, JNK, p38) phosphorylation in NRK-49F cells (Western blot); type: cell-based, rat; settings: KP1 10 µg/ml (3 μM) or ITD-1 3 μM 1 h, TGF-β1 2 ng/ml 45 min, individual values, n = 3, P <0.001, <0.001 and <0.001, Fig. 3n
Description: (§2) Normal rat kidney interstitial fibroblasts (NRK-49F) and human proximal tubular epithelial cells (HKC-8) were cultured at 37 °C. NRK-49F cells were serum-starved for 24 h and were pretreated with KP1 (10 µg/ml, 3 µM) for 1 h prior to incubation with TGF-β1 (#240-B; R&D Systems) at 2 ng/ml. Cells were collected at 45 min or 24 h after TGF-β1 treatment, respectively. Whole-cell lysates were prepared and subjected to Western blot analyses. For some experiments, cells were transiently transfected with expression vector human secreted Klotho (sKlotho) that only contains KL1 domain[48], by using Lipofectamine 2000 reagent (Invitrogen, Grand Island, NY) prior to treatment with TGF-β1.
(§3) Western blot analysis was performed as previously described. […] Image J (v1.8.0) was used to quantify Western blot results.

[3] = tested on: Smad2/3 phosphorylation in NRK-49F cells; assay: TGF-β1-induced Smad2/3 phosphorylation in NRK-49F cells (Western blot); type: cell-based, rat; settings: KP1 10 µg/ml (3 μM) or ITD-1 3 μM 1 h, TGF-β1 2 ng/ml 45 min, individual values, n = 3, P <0.001, 0.008 and <0.001, Fig. 3m
Description: as §2, §3

UUO mice = assay: KP1 versus ITD-1 in UUO mice: renal TGF-β signaling and fibrosis proteins (Western blot); type: in vivo, mouse; design: renal p-Smad2 (Western blot) / renal p-Smad3 (Western blot) / renal p-p38 (Western blot) / renal p-JNK (Western blot) / renal collagen I (Western blot) / renal fibronectin (Western blot) / renal α-SMA (Western blot): unit not given here; settings: KP1 1 mg/kg (0.31 μM/kg) or ITD-1 0.31 μM/kg, individual animals
Description: as §1
Western blot analysis was performed as previously described. The primary antibodies used were as follows: anti-fibronectin (dilution 1:10000; F3648; Sigma), anti-α-SMA (dilution 1:1000; ab7817; Abcam), anti-collagen-1 (dilution 1:1000; BM4017; Boster), anti-p-Smad3 (dilution 1:1000; #9520), anti-p-Smad2 (dilution 1:1000; #3104s), anti-p-ERK (dilution 1:1000; #9101s), anti-p-p38 (dilution 1:1000; #9211s), anti-p-JNK (dilution 1:1000; #9251s), anti-Smad2/3 (dilution 1:1000; #8685s), anti-JNK (dilution 1:1000; #9252), anti-ERK (dilution 1:1000; #4695), anti-p38 (dilution 1:1000; #8690; Cell Signaling Technology), anti-Klotho (dilution 1:1000; AF1819; R&D System), anti-TβR2 (dilution 1:1000; sc-7791; Santa Cruz), anti-TGF-β1 (dilution 1:1000; ab92486; Abcam), anti-GAPDH (dilution 1:5000; LK9002L; Sungene, Tianjin), anti-FITC (dilution 1:1000; PA1-26793; Invitrogen), anti-F4/80 (dilution 1:1000; 14-4801-82, eBioscience). The integration of all blots images was performed on Adobe Photoshop CS6. Graphpad Prism 8 was used to get statistics figures. Image J (v1.8.0) was used to quantify Western blot results. […]
in vivo. UUO mice were treated with KP1 (1 mg/kg, 0.31 μM/kg) or ITD-1 (0.31 μM/kg). We stern blot analyses (a, b) and quantitative data of p-Smad2 (c), p-Smad3 (d), p-ERK1/2 (e), p-JNK (f) and p-p38 […]
n=6 biologically independent animals. (h-k) Western blot analyses (h) and quantitative data of fibronectin (i), α-SMA (j) and Collagen Ⅰ (k) are shown. P values (from left to right): 0.001, 0.627, […]
independent animals. Data are presented as mean values +/- SEM. Statistical significance was determined by one-way ANOVA followed by Dunnett’s T3 post hoc test.
(1 picture or pasted object on this page, not shown here)

T1 sequence (P37173 23-159 limits assumed): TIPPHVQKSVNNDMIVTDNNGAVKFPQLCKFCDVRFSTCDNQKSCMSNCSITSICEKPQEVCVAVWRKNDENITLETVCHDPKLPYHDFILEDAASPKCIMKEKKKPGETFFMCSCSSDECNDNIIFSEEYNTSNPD

| Compound | phosphorus (UIRI mice; UIRI mice + KP1, individual animals, n = 6, UIRI vs UIRI/KP1 P=0.220, Supplementary Table 2) | calcium (UIRI mice; UIRI mice + KP1, individual animals, n = 6, UIRI vs UIRI/KP1 P=0.798, Supplementary Table 2) | effect on blood phosphorus and calcium (in words) (UIRI mice; compared to the UIRI group) | kon [1] | p-p38 (quantitative Western blot), KP1 versus ITD-1 [2] | p-Smad3 (quantitative Western blot), KP1 versus ITD-1 [3] | renal collagen I (Western blot) (UUO mice; n = 6, P 0.001, 0.477, 0.001, Supplementary Fig. 5k) | renal fibronectin (Western blot) (UUO mice; n = 6, P 0.001, 0.627, <0.001, Supplementary Fig. 5i) | renal p-ERK1/2 (Western blot) (UUO mice; n = 6, P 0.004, 0.988, 0.002, Supplementary Fig. 5e) | renal α-SMA (Western blot) (UUO mice; n = 6, P 0.006, 0.497, 0.007, Supplementary Fig. 5j) | renal p-Smad3 (Western blot) (UUO mice; n = 6, P <0.001, 0.438, <0.001, Supplementary Fig. 5d) | renal p-JNK (Western blot) (UUO mice; n = 6, P <0.001, 0.758, <0.001, Supplementary Fig. 5f) | renal p-p38 (Western blot) (UUO mice; n = 6, P <0.001, 1.00, 0.001, Supplementary Fig. 5g) | renal p-Smad2 (Western blot) (UUO mice; n = 6, P <0.001, 1.00, <0.001, Supplementary Fig. 5c) |
| --- | --- | --- | --- | --- | --- | --- | --- | --- | --- | --- | --- | --- | --- | --- |
| CC(C)C[C@H](NC(=O)[C@H](Cc1ccccc1)NC(=O)CNC(=O)[C@H](CC(=O)O)NC(=O)[C@@H]1CCCN1C(=O)[C@H](Cc1ccccc1)NC(=O)[C@@H](NC(=O)CNC(=O)[C@H](CCC(N)=O)NC(=O)[C@@H](N)Cc1ccccc1)[C@@H](C)O)C(=O)N[C@@H](Cc1c[nH]c2ccccc12)C(=O)N[C@@H](C)C(=O)N[C@H](C(=O)NCC(=O)N[C@@H](CO)C(=O)N[C@@H](C)C(=O)N[C@@H](C)C(=O)N[C@@H](Cc1ccc(O)cc1)C(=O)N[C@@H](CCC(N)=O)C(=O)N[C@H](C(=O)N[C@@H](CCC(=O)O)C(=O)NCC(=O)NCC(=O)N[C@@H](Cc1c[nH]c2ccccc12)C(=O)N[C@@H](CCC(N)=O)C(=O)N[C@@H](CCC(N)=O)C(=O)N[C@@H](Cc1c[nH]cn1)C(=O)NCC(=O)N[C@@H](CCCCN)C(=O)NCC(=O)O)[C@@H](C)O)C(C)C [KP1] | 4.92 mmol/L and 5.73 mmol/L and 6.63 mmol/L and 4.9 mmol/L and 3.76 mmol/L and 4.04 mmol/L | 2.71 mmol/L and 2.53 mmol/L and 2.54 mmol/L and 2.38 mmol/L and 2.93 mmol/L and 2.46 mmol/L | did not affect blood phosphorus and calcium level compared to the UIRI group | 408 M⁻¹ s⁻¹ |  |  |  |  |  |  |  |  |  |  |
| CCOC(=O)C1=C(C)NC2=C(C(=O)CC(C)(C)C2)C1c1ccc(-c2ccccc2)cc1 (centres unmarked) [ITD-1] |  |  |  |  | 2.793 and 1.62 and 1.25 | 2.756 and 2.347 and 1.188 | 6.627 and 4.346 and 7.91 and 8.759 and 4.669 and 8.535 | 9.72 and 9.315 and 3.815 and 3.805 and 3.523 and 5.024 | 11.5729 and 8.005 and 9.67 and 4.8 and 3.482 and 4.512 | 10.3176 and 15.77 and 12.2484 and 11.8776 and 11.4615 and 9.704 | 6.279 and 6.866 and 5.7731 and 6.57 and 6.136 and 7.119 | 4.803 and 6.567 and 5.7 and 7.786 and 5.264 and 7.2 | 5.956 and 6.507 and 4.878 and 4.538 and 5.819 and 6.755 | 18.8987 and 13.9891 and 9.419 and 10.7729 and 8.909 and 13.9004 |

From publication PMC8782923, “A Klotho-derived peptide protects against kidney fibrosis by targeting TGF-β signaling” (Nature Communications, 2022)
